Test results published in the NIST ThermoML archive (doi:10.1021/acs.jced.7b00494).

Details: 99.6 kPa, Liquid; for kinematic viscosity: Capillary tube (Ostwald / Ubbelohde) method; for mass density: Vibrating tube method

CNC(C)=O [N-methylacetamide]
Details | kinematic viscosity [m2/s] | mass density [kg/m3]
308.15 K | 3.79e-06 | 945.85
313.15 K | 3.35e-06 | 941.63
318.15 K | 2.99e-06 | 937.44
323.15 K | 2.68e-06 | 933.24
328.15 K | 2.42e-06 | 929.07
